The results in this text go back to article PMC4146477, “Synthesis and Antimycobacterial and Photosynthesis-Inhibiting Evaluation of 2-[(E)-2-Substituted-ethenyl]-1,3-benzoxazoles” (The Scientific World Journal, 2014).

By MIC is commonly meant the least concentration at which growth counts as inhibited. A word on the IC50: it is the concentration that inhibits the measured activity by half. Higher therefore signals lower potency.

Converted amounts (≈) assume the structure as drawn. “And” between values parts separate entries of the source, which are not always exact repeats. Equal values may be shown once.

Test system in one series: not listed separately
The series is described as follows: Lipophilicity determination by RP-HPLC (capacity factor k / log k). To be noted: C18, MeOH 70% / H2O 30%, isocratic. It counts as physicochemical. The text has this: A Waters Alliance 2695 XE HPLC separation module and a Waters Photodiode Array Detector 2996 (Waters Corp., Milford, MA, USA) were used. A Symmetry C18 5 μm, 4.6 × 250 mm, Part No. WAT054275 (Waters Corp., Milford, MA, USA) chromatographic column was used. The HPLC separation process was monitored by Empower 2 Chromatography Data Software, Waters 2009 (Waters Corp., Milford, MA, USA). A mixture of MeOH p.a. (70%) and H2O-HPLC - Mili-Q Grade (30%) was used as a mobile phase. The total flow of the column was 1.0 mL/min, injection volume, 30 μL, column temperature, 45°C, and sample temperature, 10°C. The detection wavelength of 210 nm was chosen. The KI methanolic solution was used for the dead time (t D) determination. Retention times (t R) were measured in minutes. The capacity factors k were calculated using the Empower 2 Chromatography Data Software according to formula k = (t R − t D)/t D, where t R is the retention time of the solute, whereas t D denotes the dead time obtained using an unretained analyte.
Lipophilicity is a property that has a major effect on ADME/Tox properties as well as pharmacological activity, because drugs mostly cross biological membranes through passive transport, which strongly depends on their lipophilicity. Lipophilicity has been studied and applied as an important drug property for decades. This parameter was measured by means of RP-HPLC and expressed as logarithm of capacity factor k. The procedure was performed under isocratic conditions with methanol as an organic modifier in the mobile phase using an end-capped nonpolar C18 stationary RP column. The hydrophobic contributions (expressed as distributive parameters π) of individual substituents in C(2) position of 2-[(E)-2-substituted-ethenyl]-1,3-benzoxazole scaffold were predicted using ACD/Percepta ver. 2012 (Advanced Chemistry Development, Inc., Toronto, ON, Canada). The results are shown in Table 1 and the match of the experimental determined lipophilicity log k with calculated distributive parameters π is illustrated in Figure 1.
`C(=C\c1nc2ccccc2o1)/c1ccc2c(c1)CCO2` [Compound 8, 2-[(E)-2-(2,3-Dihydro-1-benzofuran-5-yl)ethenyl]-1,3-benzoxazole] yielded a log k of 0.9397.
Still for that read-out and setting: then `FC(F)(F)c1ccc(/C=C/c2nc3ccccc3o2)cc1` [Compound 7, 2-{(E)-2-[4-(Trifluoromethyl)phenyl]ethenyl}-1,3-benzoxazole], with 1.1317; and `C(=C\c1nc2ccccc2o1)/c1ccccc1` [Compound 1, 2-[(E)-2-Phenylethenyl]-1,3-benzoxazole], with 0.9409.

A further series deals with Mycobacterium tuberculosis My 331/88. The series is described as follows: In vitro antimycobacterial evaluation (MIC, Sula semisynthetic medium). Format: cell-based. The following applies: MY331/88, 336 h, 14d incubation.
Compound `NNC(=O)c1ccncc1` [INH, isoniazid, reference compound] displayed an MIC of 0.5 µM (≈ 0.0686 µg/mL).
Turning to `C(=C\c1nc2ccccc2o1)/c1ccco1` [Compound 9, 2-[(E)-2-(Furan-2-yl)ethenyl]-1,3-benzoxazole], the lowest concentration to inhibit growth (MIC) was 62.5 µM (≈ 13.2 µg/mL).
The same measure, in the same setting: the same measure for `C(=C\c1nc2ccccc2o1)/c1ccc2c(c1)CCO2` [Compound 8, 2-[(E)-2-(2,3-Dihydro-1-benzofuran-5-yl)ethenyl]-1,3-benzoxazole]: 62.5 µM (≈ 16.5 µg/mL).
Still for that read-out and setting: then `FC(F)(F)c1ccc(/C=C/c2nc3ccccc3o2)cc1` [Compound 7, 2-{(E)-2-[4-(Trifluoromethyl)phenyl]ethenyl}-1,3-benzoxazole], with 125 µM (≈ 36.2 µg/mL).
On the same count and under the same terms, the same measure for `C(=C\c1nc2ccccc2o1)/c1ccccc1` [Compound 1, 2-[(E)-2-Phenylethenyl]-1,3-benzoxazole]: 125 µM (≈ 27.7 µg/mL); for `C(/C=C/c1nc2ccccc2o1)=C\c1ccccc1` [Compound 11, 2-[(1E,3E)-4-Phenylbuta-1,3-dien-1-yl]-1,3-benzoxazole]: 125 µM (≈ 30.9 µg/mL).

Still in this series, the particulars now being: MY331/88, 504 h, 21d incubation.
In turn, `NNC(=O)c1ccncc1` [INH, isoniazid, reference compound] gave a minimal inhibitory concentration (MIC) of 0.5 µM (≈ 0.0686 µg/mL).
Same read-out and setting: the same measure for `C(=C\c1nc2ccccc2o1)/c1ccco1` [Compound 9, 2-[(E)-2-(Furan-2-yl)ethenyl]-1,3-benzoxazole]: 125 µM (≈ 26.4 µg/mL); for `C(=C\c1nc2ccccc2o1)/c1ccc2c(c1)CCO2` [Compound 8, 2-[(E)-2-(2,3-Dihydro-1-benzofuran-5-yl)ethenyl]-1,3-benzoxazole]: 62.5 µM (≈ 16.5 µg/mL); for `FC(F)(F)c1ccc(/C=C/c2nc3ccccc3o2)cc1` [Compound 7, 2-{(E)-2-[4-(Trifluoromethyl)phenyl]ethenyl}-1,3-benzoxazole]: 250 µM (≈ 72.3 µg/mL).
The same measure, in the same setting: then `C(=C\c1nc2ccccc2o1)/c1ccccc1` [Compound 1, 2-[(E)-2-Phenylethenyl]-1,3-benzoxazole], with 125 µM (≈ 27.7 µg/mL); and `C(/C=C/c1nc2ccccc2o1)=C\c1ccccc1` [Compound 11, 2-[(1E,3E)-4-Phenylbuta-1,3-dien-1-yl]-1,3-benzoxazole], with 250 µM (≈ 61.8 µg/mL).

The test system of another series is M. avium My 330/88. The series is described as above. To be noted: Mycobacterium avium, MY330/88, 336 h; 14d incubation. It counts as cell-based.
In turn, `NNC(=O)c1ccncc1` [INH, isoniazid, reference compound] returned a minimal inhibitory concentration (MIC) above 250 µM.
On the same count and under the same terms, then `C(=C\c1nc2ccccc2o1)/c1ccco1` [Compound 9, 2-[(E)-2-(Furan-2-yl)ethenyl]-1,3-benzoxazole], with 62.5 µM (≈ 13.2 µg/mL); and `C(=C\c1nc2ccccc2o1)/c1ccc2c(c1)CCO2` [Compound 8, 2-[(E)-2-(2,3-Dihydro-1-benzofuran-5-yl)ethenyl]-1,3-benzoxazole], with 32 µM (≈ 8.43 µg/mL); and `FC(F)(F)c1ccc(/C=C/c2nc3ccccc3o2)cc1` [Compound 7, 2-{(E)-2-[4-(Trifluoromethyl)phenyl]ethenyl}-1,3-benzoxazole], with 125 µM (≈ 36.2 µg/mL).
On the same count and under the same terms, the same measure for `C(=C\c1nc2ccccc2o1)/c1ccccc1` [Compound 1, 2-[(E)-2-Phenylethenyl]-1,3-benzoxazole]: 62.5 µM (≈ 13.8 µg/mL); for `C(/C=C/c1nc2ccccc2o1)=C\c1ccccc1` [Compound 11, 2-[(1E,3E)-4-Phenylbuta-1,3-dien-1-yl]-1,3-benzoxazole]: 250 µM (≈ 61.8 µg/mL).

Still in this series, the particulars now being: Mycobacterium avium, MY330/88, 504 h; 21d incubation.
Consider `NNC(=O)c1ccncc1` [INH, isoniazid, reference compound], for which the MIC was above 250 µM.
On the same count and under the same terms, the same measure for `C(=C\c1nc2ccccc2o1)/c1ccco1` [Compound 9, 2-[(E)-2-(Furan-2-yl)ethenyl]-1,3-benzoxazole]: 125 µM (≈ 26.4 µg/mL); for `C(=C\c1nc2ccccc2o1)/c1ccc2c(c1)CCO2` [Compound 8, 2-[(E)-2-(2,3-Dihydro-1-benzofuran-5-yl)ethenyl]-1,3-benzoxazole]: 32 µM (≈ 8.43 µg/mL); for `FC(F)(F)c1ccc(/C=C/c2nc3ccccc3o2)cc1` [Compound 7, 2-{(E)-2-[4-(Trifluoromethyl)phenyl]ethenyl}-1,3-benzoxazole]: 250 µM (≈ 72.3 µg/mL).
Same read-out and setting: then `C(=C\c1nc2ccccc2o1)/c1ccccc1` [Compound 1, 2-[(E)-2-Phenylethenyl]-1,3-benzoxazole], with 125 µM (≈ 27.7 µg/mL).
On the same count and under the same terms, the same measure for `C(/C=C/c1nc2ccccc2o1)=C\c1ccccc1` [Compound 11, 2-[(1E,3E)-4-Phenylbuta-1,3-dien-1-yl]-1,3-benzoxazole]: 500 µM (≈ 124 µg/mL).

The subject of another series is M. kansasii My 235/80. The description is as above. To be noted: Mycobacterium kansasii, MY235/80, 336 h; 14d incubation; read-out: MIC MK. Format: cell-based.
Consider `NNC(=O)c1ccncc1` [INH, isoniazid, reference compound], for which the MIC is above 250 µM.
In the case of `C(=C\c1nc2ccccc2o1)/c1ccco1` [Compound 9, 2-[(E)-2-(Furan-2-yl)ethenyl]-1,3-benzoxazole], the minimal inhibitory concentration (MIC) stood at 125 µM (≈ 26.4 µg/mL).
Same read-out and setting: then `C(=C\c1nc2ccccc2o1)/c1ccc2c(c1)CCO2` [Compound 8, 2-[(E)-2-(2,3-Dihydro-1-benzofuran-5-yl)ethenyl]-1,3-benzoxazole], with 62.5 µM (≈ 16.5 µg/mL).
Regarding `FC(F)(F)c1ccc(/C=C/c2nc3ccccc3o2)cc1` [Compound 7, 2-{(E)-2-[4-(Trifluoromethyl)phenyl]ethenyl}-1,3-benzoxazole], the MIC is 250 µM (≈ 72.3 µg/mL).
Regarding `C(=C\c1nc2ccccc2o1)/c1ccccc1` [Compound 1, 2-[(E)-2-Phenylethenyl]-1,3-benzoxazole], the MIC is 125 µM (≈ 27.7 µg/mL).
The same measure, in the same setting: then `C(/C=C/c1nc2ccccc2o1)=C\c1ccccc1` [Compound 11, 2-[(1E,3E)-4-Phenylbuta-1,3-dien-1-yl]-1,3-benzoxazole], with 500 µM (≈ 124 µg/mL).

The same series, now with this note: Mycobacterium kansasii, MY235/80, 504 h; 21d incubation; read-out: MIC MK.
Take `NNC(=O)c1ccncc1` [INH, isoniazid, reference compound]: the MIC is above 250 µM.
Same read-out and setting: then `C(=C\c1nc2ccccc2o1)/c1ccco1` [Compound 9, 2-[(E)-2-(Furan-2-yl)ethenyl]-1,3-benzoxazole], with 125 µM (≈ 26.4 µg/mL); and `C(=C\c1nc2ccccc2o1)/c1ccc2c(c1)CCO2` [Compound 8, 2-[(E)-2-(2,3-Dihydro-1-benzofuran-5-yl)ethenyl]-1,3-benzoxazole], with 250 µM (≈ 65.8 µg/mL).
Still for that read-out and setting: then `FC(F)(F)c1ccc(/C=C/c2nc3ccccc3o2)cc1` [Compound 7, 2-{(E)-2-[4-(Trifluoromethyl)phenyl]ethenyl}-1,3-benzoxazole], with 500 µM (≈ 145 µg/mL); and `C(=C\c1nc2ccccc2o1)/c1ccccc1` [Compound 1, 2-[(E)-2-Phenylethenyl]-1,3-benzoxazole], with 125 µM (≈ 27.7 µg/mL).
On the same count and under the same terms, the same measure for `C(/C=C/c1nc2ccccc2o1)=C\c1ccccc1` [Compound 11, 2-[(1E,3E)-4-Phenylbuta-1,3-dien-1-yl]-1,3-benzoxazole]: 500 µM (≈ 124 µg/mL).

Still in this series, the particulars now being: Mycobacterium kansasii, MY235/80, incubation time not stated; read-out: inhibitory activity (MIC) against M. kansasii.
As to `C(/C=C/c1nc2ccccc2o1)=C\c1ccccc1` [Compound 11, 2-[(1E,3E)-4-Phenylbuta-1,3-dien-1-yl]-1,3-benzoxazole], the MIC turned out to be 500 µM (≈ 124 µg/mL).

The subject of the next series is photosynthetic electron transport (PET) in spinach chloroplasts. The series is described as follows: Inhibition of photosynthetic electron transport (PET) in spinach chloroplasts (DCPIP photoreduction). Format: biochemical, Spinacia oleracea L. To be noted: DCPIP as electron acceptor. Here is the method:
Chloroplasts were prepared from spinach (Spinacia oleracea L.) according to Masarovicova and Kralova. The inhibition of photosynthetic electron transport (PET) in spinach chloroplasts was determined spectrophotometrically (Genesys 6, Thermo Scientific), using an artificial electron acceptor 2,6-dichlorophenol-indophenol (DCPIP) according to Kralova et al., and the rate of photosynthetic electron transport was monitored as a photoreduction of DCPIP. The measurements were carried out in phosphate buffer (0.02 mol/L, pH 7.2) containing sucrose (0.4 mol/L), MgCl2 (0.005 mol/L), and NaCl (0.015 mol/L). The chlorophyll content was 30 mg/L in these experiments and the samples were irradiated (~100 W/m^2 with 10 cm distance) with a halogen lamp (250 W) using a 4 cm water filter to prevent warming of the samples (suspension temperature 22°C). The studied compounds were dissolved in DMSO due to their limited water solubility. […] The inhibitory efficiency of the studied compounds was expressed by IC50 values, that is, by molar concentration of the compounds causing 50% decrease in the oxygen evolution rate relative to the untreated control.
Take `CN(C)C(=O)Nc1ccc(Cl)c(Cl)c1` [DCMU, 3-(3,4-dichlorophenyl)-1,1-dimethylurea, reference compound]: the half-inhibitory concentration (IC50) is ~1.9 µM and 1.9 µM.
The same measure, in the same setting: then `C(=C\c1nc2ccccc2o1)/c1ccco1` [Compound 9, 2-[(E)-2-(Furan-2-yl)ethenyl]-1,3-benzoxazole], with 224 µM.
Same read-out and setting: then `C(=C\c1nc2ccccc2o1)/c1ccc2c(c1)CCO2` [Compound 8, 2-[(E)-2-(2,3-Dihydro-1-benzofuran-5-yl)ethenyl]-1,3-benzoxazole], with 131 µM.
Same read-out and setting: then `C(=C\c1nc2ccccc2o1)/c1ccccc1` [Compound 1, 2-[(E)-2-Phenylethenyl]-1,3-benzoxazole], with 149 µM; and `C(/C=C/c1nc2ccccc2o1)=C\c1ccccc1` [Compound 11, 2-[(1E,3E)-4-Phenylbuta-1,3-dien-1-yl]-1,3-benzoxazole], with 778 µM.
